Measurements from patent publication US10556907B2 (AbbVie Inc., priority 2015, dated 2020).
pEC50: −log10 of the molar value. Where a name gives a salt, the structure may show the parent alone.

Tests used:
Experiment in all cases: Method 1: intracellular Ca2+ release (FLIPR, Calcium 5) in recombinant CHO-K1 cells
Type in all cases: cell-based
[1] = target: T1, human S1PR1 receptor (Homo sapiens, UniProt P21453); conditions: (1): determined with method 1; read-out: S1P1 EC50
T1 construct: host or cells: CHO-K1
How it was run: (§1)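 CHO-K1 cells co-expressing the receptor, aequorin and Gq/i5 were loaded with Calcium 5 dye 1 h at 37° C, then held 45 min at RT. Serially diluted compounds added in HBSS/20 mmol/L Hepes/2.5 mmol/L probenecid/0.1% BSA pH 7.4. FLIPR Tetra fluorescence, normalized to phospho-fingolimod, fitted for EC50.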

[2] = target: T2, human S1PR4 receptor (Homo sapiens, UniProt O95977); conditions: (1): determined with method 1; read-out: S1P4 EC50
T2 construct: host or cells: CHO-K1
T2 sequence (O95977 1-384): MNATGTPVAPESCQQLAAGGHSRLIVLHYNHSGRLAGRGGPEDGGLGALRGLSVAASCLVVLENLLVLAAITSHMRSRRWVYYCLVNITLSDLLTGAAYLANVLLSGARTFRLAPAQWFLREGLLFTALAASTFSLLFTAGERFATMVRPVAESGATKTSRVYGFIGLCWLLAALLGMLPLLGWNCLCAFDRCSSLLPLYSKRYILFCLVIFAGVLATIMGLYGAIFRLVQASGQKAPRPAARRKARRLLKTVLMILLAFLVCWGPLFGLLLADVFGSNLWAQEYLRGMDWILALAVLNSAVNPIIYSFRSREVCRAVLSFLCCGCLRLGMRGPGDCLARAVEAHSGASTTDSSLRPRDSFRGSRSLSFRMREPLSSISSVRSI
How it was run: as §1

[3] = target: T3, human S1PR5 receptor (Homo sapiens, UniProt Q9H228); conditions: agonist potency, determined with method 1 (symbols A-D); read-out: S1P5 EC50 range
T3 construct: host or cells: CHO-K1
How it was run: as §1

T1 sequence (P21453 whole entry): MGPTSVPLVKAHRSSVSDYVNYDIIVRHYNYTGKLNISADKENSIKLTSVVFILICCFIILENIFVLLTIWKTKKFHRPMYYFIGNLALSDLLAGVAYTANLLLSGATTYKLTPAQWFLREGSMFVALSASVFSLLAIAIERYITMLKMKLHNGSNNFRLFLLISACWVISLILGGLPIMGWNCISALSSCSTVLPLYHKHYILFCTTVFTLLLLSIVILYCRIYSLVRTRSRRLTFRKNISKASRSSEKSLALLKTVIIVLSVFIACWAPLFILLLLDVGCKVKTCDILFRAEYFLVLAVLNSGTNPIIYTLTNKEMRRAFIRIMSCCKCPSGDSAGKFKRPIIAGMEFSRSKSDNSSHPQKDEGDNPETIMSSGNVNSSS
T3 sequence (Q9H228 whole entry): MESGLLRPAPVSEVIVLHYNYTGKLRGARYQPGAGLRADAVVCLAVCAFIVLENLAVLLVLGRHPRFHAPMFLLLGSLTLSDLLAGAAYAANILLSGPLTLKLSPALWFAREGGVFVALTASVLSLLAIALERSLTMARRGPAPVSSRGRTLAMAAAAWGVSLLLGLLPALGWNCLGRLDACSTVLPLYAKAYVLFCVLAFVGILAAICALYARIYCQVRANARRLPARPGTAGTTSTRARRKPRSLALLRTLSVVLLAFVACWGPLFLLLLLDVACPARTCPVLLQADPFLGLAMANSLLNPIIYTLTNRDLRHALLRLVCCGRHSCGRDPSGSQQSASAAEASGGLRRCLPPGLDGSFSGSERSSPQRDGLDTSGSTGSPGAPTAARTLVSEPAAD

Row | Structure (SMILES) | pEC50 [1] | pEC50 [2] | pEC50 [3]
1 | Cc1cc(-c2ncc3c(n2)CCN(CC(C)CC(=O)O)C3)ccc1OCc1cccc(F)c1F (stereo not drawn) [Compound 256, 4-(2-(4-((2,3-difluorobenzyl)oxy)-3-methylphenyl)-7,8-dihydropyrido[4,3-d]pyrimidin-6(5H)-yl)-3-methylbutanoic acid] | < 6.00 | < 6.00 | > 8.00
2 | CC(C)(CC(=O)O)CN1CCc2nc(-c3ccc(OCc4cccc(Cl)c4)cc3)ncc2C1 [Compound 216, 4-(2-(4-((3-chlorobenzyl)oxy)phenyl)-7,8-dihydropyrido[4,3-d]pyrimidin-6(5H)-yl)-3,3-dimethylbutanoic acid] | < 6.00 | < 6.00 | 5.00 to 6.00
3 | O=C(O)CC1CC(N2CCc3nc(-c4ccc(OCc5ccc(Cl)c(Cl)c5)cc4)ncc3C2)C1 (stereo not drawn) [Compound 4, 2-(3-(2-(4-((3,4-dichlorobenzyl)oxy)phenyl)-7,8-dihydropyrido[4,3-d]pyrimidin-6(5H)-yl)cyclobutyl)acetic acid] | < 6.00 | < 6.00 | 6.00 to 7.00
4 | Cc1cc(-c2ncc3c(n2)CCN(CC(C)CC(=O)O)C3)ccc1OCc1ccc(C(C)C)cc1 (stereo not drawn) [Compound 310, 4-[2-[4-[(4-isopropylphenyl)methoxy]-3-methyl-phenyl]-7,8-dihydro-5H-pyrido[4,3-d]pyrimidin-6-yl]-3-methyl-butanoic acid 2,2,2-trifluoroacetic acid salt] | < 6.00 | < 6.00 | 6.00 to 7.00
5 | O=C(O)C1(CCN2CCc3nc(-c4ccc(OCc5ccc(Cl)cc5)cc4)ncc3C2)CC1 [Compound 335, 1-(2-(2-(4-((4-chlorobenzyl)oxy)phenyl)-7,8-dihydropyrido[4,3-d]pyrimidin-6(5H)-yl)ethyl)cyclopropanecarboxylic acid] | < 6.00 | < 6.00 | 6.00 to 7.00
6 | Cc1cc(C)cc(COc2ccc(-c3ncc4c(n3)CCN(CC(C)CC(=O)O)C4)c(F)c2)c1 (stereo not drawn) [Compound 313, 4-[2-[4-[(3,5-dimethylphenyl)methoxy]-2-fluoro-phenyl]-7,8-dihydro-5H-pyrido[4,3-d]pyrimidin-6-yl]-3-methyl-butanoic acid 2,2,2-trifluoroacetic acid salt] | < 6.00 | < 6.00 | 6.00 to 7.00
7 | Cc1cc(-c2ncc3c(n2)CCN(C[C@H](C)CC(=O)O)C3)ccc1OCc1ccc(Cl)cc1 [Compound 318, (R)-4-(2-(4-((4-chlorobenzyl)oxy)-3-methylphenyl)-7,8-dihydropyrido[4,3-d]pyrimidin-6(5H)-yl)-3-methylbutanoic acid] | < 6.00 | < 6.00 | 6.00 to 7.00
8 | CC(CC(=O)O)CN1CCc2nc(C3CC(OCc4ccccc4)C3)ncc2C1 (stereo not drawn) [Compound 333, 4-(2-(3-(benzyloxy)cyclobutyl)-7,8-dihydropyrido[4,3-d]pyrimidin-6(5H)-yl)-3-methylbutanoic acid] | < 6.00 | < 6.00 | 5.00 to 6.00
9 | O=C(O)C1CC(N2CCc3nc(-c4cccc(OCc5ccccc5)c4)cnc3C2)C1 (stereo not drawn) [Compound 208, 3-(2-(3-(benzyloxy)phenyl)-7,8-dihydropyrido[3,4-b]pyrazin-6(5H)-yl)cyclobutanecarboxylic acid] | < 6.00 | < 6.00 | 5.00 to 6.00
10 | Cc1cc(-c2ncc3c(n2)CCN(CC(C)CC(=O)O)C3)ccc1OCc1ccccc1C(F)(F)F (stereo not drawn) [Compound 309, 3-methyl-4-[2-[3-methyl-4-[[2-(trifluoromethyl)phenyl]methoxy]phenyl]-7,8-dihydro-5H-pyrido[4,3-d]pyrimidin-6-yl]butanoic acid 2,2,2-trifluoroacetic acid salt] | < 6.00 | < 6.00 | 6.00 to 7.00
11 | CC(C)(CC(=O)O)CN1CCc2nc(-c3ccc(OCc4cccc(Cl)c4)cc3)cnc2C1 [Compound 211, 4-(2-(4-((3-chlorobenzyl)oxy)phenyl)-7,8-dihydropyrido[3,4-b]pyrazin-6(5H)-yl)-3,3-dimethylbutanoic acid] | < 6.00 | < 6.00 | 5.00 to 6.00

Next, values leading:

Row | pEC50 [1] | pEC50 [2] | pEC50 [3] | Structure (SMILES)
12 | < 6.00 | < 6.00 | 6.00 to 7.00 | Cc1ccc(COc2ccc(-c3ncc4c(n3)CCN(CC(C)CC(=O)O)C4)cc2C)c(C)c1 (stereo not drawn) [Compound 305, 4-[2-[4-[(2,4-dimethylphenyl)methoxy]-3-methyl-phenyl]-7,8-dihydro-5H-pyrido[4,3-d]pyrimidin-6-yl]-3-methyl-butanoic acid 2,2,2-trifluoroacetic acid salt]
13 | < 6.00 | < 6.00 | 5.00 to 6.00 | C[C@H](CC(=O)O)C(=O)N1CCc2nc(-c3ccc(OCc4ccc(Cl)cc4)cc3)ncc2C1 [Compound 332, (R)-4-(2-(4-((4-chlorobenzyl)oxy)phenyl)-7,8-dihydropyrido[4,3-d]pyrimidin-6(5H)-yl)-3-methyl-4-oxobutanoic acid]
14 | < 6.00 | < 6.00 | 7.00 to 8.00 | C[C@@H](CC(=O)O)CN1CCc2nc(-c3ccc(CCc4ccc(Cl)cc4)cc3)ncc2C1 [Compound 278, (S)-4-(2-(4-(4-chlorophenethyl)phenyl)-7,8-dihydropyrido[4,3-d]pyrimidin-6(5H)-yl)-3-methylbutanoic acid]
15 | < 6.00 | < 6.00 | 6.00 to 7.00 | O=C(O)CN1CCc2nc(-c3ccc(OCc4ccc(Cl)cc4)cc3)ncc2C1 [Compound 29, 2-(2-(4-((4-chlorobenzyl)oxy)phenyl)-7,8-dihydropyrido[4,3-d]pyrimidin-6(5H)-yl)acetic acid]
16 | < 6.00 | < 6.00 | 7.00 to 8.00 | Cc1cccc(C)c1COc1ccc(-c2ncc3c(n2)CCN(CC(C)CC(=O)O)C3)c(F)c1 (stereo not drawn) [Compound 276, 4-[2-[4-[(2,6-dimethylphenyl)methoxy]-2-fluoro-phenyl]-7,8-dihydro-5H-pyrido[4,3-d]pyrimidin-6-yl]-3-methyl-butanoic acid 2,2,2-trifluoroacetic acid salt]
17 | < 6.00 | < 6.00 | 6.00 to 7.00 | Cc1ccc(C(F)(F)F)c(COc2ccc(-c3ncc4c(n3)CCN(CC(C)CC(=O)O)C4)c(F)c2)c1 (stereo not drawn) [Compound 290, 4-[2-[2-fluoro-4-[[5-methyl-2-(trifluoromethyl)phenyl]methoxy]phenyl]-7,8-dihydro-5H-pyrido[4,3-d]pyrimidin-6-yl]-3-methyl-butanoic acid 2,2,2-trifluoroacetic acid salt]
18 | < 6.00 | < 6.00 | 6.00 to 7.00 | C[C@H](CCO)CN1CCc2nc(-c3ccc(OCc4ccc(Cl)cc4)cc3)ncc2C1 [Compound 315, (R)-4-(2-(4-((4-chlorobenzyl)oxy)phenyl)-7,8-dihydropyrido[4,3-d]pyrimidin-6(5H)-yl)-3-methylbutan-1-ol]
19 | < 6.00 | < 6.00 | 7.00 to 8.00 | CC(CC(=O)O)CN1CCc2nc(-c3ccc(CCc4ccccc4)cc3F)ncc2C1 (stereo not drawn) [Compound 280, 4-(2-(2-fluoro-4-phenethylphenyl)-7,8-dihydropyrido[4,3-d]pyrimidin-6(5H)-yl)-3-methylbutanoic acid]
20 | < 6.00 | < 6.00 | 6.00 to 7.00 | CC(CC(=O)O)CN1CCc2nc(-c3ccc(CCc4cccc(Cl)c4)cc3F)ncc2C1 (stereo not drawn) [Compound 292, 4-(2-(4-(3-chlorophenethyl)-2-fluorophenyl)-7,8-dihydropyrido[4,3-d]pyrimidin-6(5H)-yl)-3-methylbutanoic acid]
21 | < 6.00 | < 6.00 | 7.00 to 8.00 | Cc1cc(-c2ncc3c(n2)CCN(CC(C)CC(=O)O)C3)ccc1OCc1c(C)cccc1C (stereo not drawn) [Compound 274, 4-[2-[4-[(2,6-dimethylphenyl)methoxy]-3-methyl-phenyl]-7,8-dihydro-5H-pyrido[4,3-d]pyrimidin-6-yl]-3-methyl-butanoic acid 2,2,2-trifluoroacetic acid salt]
22 | < 6.00 | < 6.00 | 6.00 to 7.00 | O=C(O)CN1CCc2nc(-c3ccc(OCc4cc(F)cc(F)c4)cc3)ncc2C1 [Compound 31, 2-(2-(4-((3,5-difluorobenzyl)oxy)phenyl)-7,8-dihydropyrido[4,3-d]pyrimidin-6(5H)-yl)acetic acid]
23 | < 6.00 | < 6.00 | 6.00 to 7.00 | Cc1ccc(COc2ccc(-c3ncc4c(n3)CCN(CC(C)CC(=O)O)C4)c(F)c2)c(C)c1 (stereo not drawn) [Compound 304, 4-[2-[4-[(2,4-dimethylphenyl)methoxy]-2-fluoro-phenyl]-7,8-dihydro-5H-pyrido[4,3-d]pyrimidin-6-yl]-3-methyl-butanoic acid 2,2,2-trifluoroacetic acid salt]
24 | < 6.00 | < 6.00 | 5.00 to 6.00 | CC(CC(=O)O)CN1CCc2nc(-c3ccc(C(F)(F)Cc4cccc(Cl)c4)cc3)ncc2C1 (stereo not drawn) [Compound 328, 4-(2-(4-(2-(3-chlorophenyl)-1,1-difluoroethyl)phenyl)-7,8-dihydropyrido[4,3-d]pyrimidin-6(5H)-yl)-3-methylbutanoic acid]
